Data: a melting point compilation (Tetko et al.; mined from patent text by program, amines drawn as free bases though some values may be those of a salt)

SMILES	melting point
CC(C)(C)OC(=O)NC[C@H](O)CC(=O)NN	144 °C
Cc1c(C#N)c(-c2ccc(C#N)cc2)c(C)n1Cc1ccc(Cl)c(COC(=O)CCC(=O)O)c1	149 to 151 °C
O=C(CCCCN1CCOCC1)c1ccc2c(c1)C(=O)c1cc(C(=O)CCCCN3CCOCC3)ccc1-2	146 to 148 °C
C=CCc1ccccc1OCC(O)CNCCc1ccc(NC2CCN(S(=O)(=O)c3ccc(NC(=O)NCCCCCC)cc3)CC2)cc1 (centres undefined)	68 to 70 °C
Cc1cc(C=O)c(OCCCCCCCCc2ccccc2)c(C=O)c1	59 °C
COc1cc2ncnc(N3CCC(NCc4ccccn4)CC3)c2cc1OC	151 to 155 °C
Nc1c(Br)cc2c(c1Br)CCC2	220 to 221 °C
COc1ccc(S(=O)(=O)N2Cc3ccccc3N(C(=O)c3ccc(-n4ccc(C)n4)cc3Cl)CC2C(=O)NO)cc1 (centres undefined)	189 to 191 °C
COc1ccc(Nc2nc(-c3ccc4scnc4c3)cn3ccnc23)cc1OC	179 to 181 °C
O=C1c2ccccc2S(=O)(=O)N1C1CCN(Cc2c[nH]c3ccccc23)CC1	214 to 215 °C
CS(=O)(=O)c1ccc(-c2cnn(CC(F)(F)F)c(=O)c2OC2CCc3ccccc32)cc1 (centres undefined)	113 to 114 °C
Cc1cn(-c2nc(C3=Nc4ccc(-c5ccccc5F)cc4NC(=O)C3)cs2)cn1	229 °C
Cc1cccc(C(=O)Nc2cc(-c3c(-c4ccc(F)c(C)c4)nc4cccnn34)ccn2)c1	203 to 204 °C
O=C(O)CCC(Cc1ccccc1Cl)(C(=O)C=Cc1ccc(Cl)cc1)c1ccccc1 (centres undefined)	184 to 187 °C
CNC(=O)N(O)Cc1cc2ccccc2s1	160 to 161 °C
Cn1cnc2c(Nc3ccc(Cl)cc3)nc(-c3ccccn3)nc21	185 to 190 °C
Nc1cc(-n2cc(C(=O)O)c(=O)c3cc(F)c(F)c(Cl)c32)c(F)cc1F	225 to 226 °C
CCOCc1nc2c(N)nc(C)cc2n1NC(C)C	139 to 141 °C
COC(=O)c1ccc(C=O)c2ccccc12	95 to 96 °C
CCOC(=O)C1=C(CC)N(CCOC(=O)c2ccccc2)C(=O)NC1c1ccccc1 (centres undefined)	111 °C
O=c1ccc2cc(-n3cnnc3)cc(C(F)(F)F)c2[nH]1	> 320 °C
CN(C)C(=O)Oc1cccc(-c2cc(=O)c3cc(N(C)C)ccc3o2)c1	167 to 168 °C
CCCCC(=O)c1c(-c2ccc3c(Br)c(O)ccc3c2)oc2ccccc12	171 to 172 °C
CC(C)CC(NC(=O)Cc1ccc(NC(=O)Nc2ccccc2Cl)cc1)c1ncc(CCC(=O)O)s1 (centres undefined)	173 to 175 °C
CCOc1ccc2[nH]cc(CC(C)(C(=O)OC)[N+](=O)[O-])c2c1 (racemic)	80 to 82 °C

SMILES	melting point
Cc1cc(C)c(N2CCCc3c2nn(C)c3C(=O)N2CCc3ccccc3C2)c(C)c1	80.3 to 87.7 °C
CCCCCCCCCC(=O)CCC(C)=O	52 to 53 °C
COc1nc2nc(C(OC(C)=O)C3(Br)C(=O)N4C(C(=O)OCc5ccc([N+](=O)[O-])cc5)=CSC43)cn2c2c1CCC2 (centres undefined)	119 °C
COc1nc(Cl)nc(N)c1C	189 °C
CC1(C)Oc2ccc(C#N)cc2[C@@H](NC2=C(C=O)C(=O)CC2)[C@@H]1O (relative stereo)	255 to 258 °C
Cc1c(C)c2c(c(C)c1NC(=O)CC(C)(C)C)C(c1ccc(C(C)O)cc1)CO2 (centres undefined)	144 to 145 °C
Cc1ccc(S(=O)(=O)N[C@@H]2CCCC[C@H]2OCC(=O)O)cc1 (relative stereo)	56 to 58 °C
Cc1ccc([N+](=O)[O-])c(C(O)=S)c1	165 to 169 °C
Oc1ccccc1C=Nc1cccc(Cl)c1Cl	89 to 90 °C
CC(C)n1nc(-c2cnc(N)nc2-c2cccc(C(F)(F)F)c2)ccc1=O	164 to 165 °C
CC(C)CC1(C(CCN2C(=O)c3c(F)c(F)c(F)c(F)c3C2=O)C(=O)NO)CCN(CCc2ccccc2)C1=O (centres undefined)	172 to 174 °C
Cc1ccc(-c2cc(C(F)(F)F)n3cnc(-c4ccncc4)c3n2)cc1C(F)(F)F	222 °C
CCC(CC)c1ccc(Cl)c2nc3n(c12)CCCCN3c1ncc(C(C)=O)cc1C	142 °C
CN1CCN(C)C(c2ccc([N+](=O)[O-])cc2)C1=O (centres undefined)	99 to 102 °C
O=c1oc2ccccc2c(O)c1[C@@H]1C[C@@H](c2ccc(OCc3ccc(C(F)(F)F)cc3)cc2)Cc2ccccc21 (relative stereo)	153 to 155 °C
COc1cc(O)c(C(=O)C=Cc2ccc(C)cc2)c(OC)c1	130 °C
Fc1ccc(C#Cc2ccc(F)cc2)cc1	95 to 96 °C
CC(=O)Nc1cccc(-c2ccc3nncn3n2)c1	248 to 250 °C
CCN(C)c1nc2sc3c(NCc4ccncc4)ncnc3c2c2c1CCC(C)(C)C2	207 °C
CCCCCCCCCCCCCCCCCCOc1cccc(C(=O)O)c1OCCCOc1ccc(O)cc1	81 to 83 °C
Cc1cc2cc(CN3CCC(C(N)=O)CC3)cnc2cc1NC(=O)c1ccc(-c2ccc(F)cc2)cc1	265 °C
CCOC(=O)/C=C/[C@H]1CC[C@H](c2ccc(C#N)cc2)CC1	125 °C
CC(=O)Oc1ccc(C=CC(=O)O)cc1Cl	210 to 213 °C
CC(C)(S)C1COC(=O)N1 (centres undefined)	124 to 126 °C
